Tests used:
Hs578T = assay: Annexin V/PI binding (cell death/apoptosis), flow cytometry; assay type: cell-based; settings: for effect of addition of cholesterol on induced death: Hs578T cells, 70 μg/ml BN107, 0.2 mg/ml BZL101 or 500 nM taxol with 500 μM cholesterol, 18 hours
Description: (§1) ERα plays a role in BN107-induced apoptosis. In Table 1-1 below are the results of experiments in which cells were treated with BN107 and harvested after 24 hours for analysis of Annexin V/PI binding. Three independent experiments were conducted for each data point.
(§2) BN107 induced apoptosis selectively in ER− breast cancer cells and introducing expression of ERα protected these cells against BN107 Prior studies have shown that ethanolic extract of G. sinensis is cytotoxic to a number tumor cell lines by inducing cytotoxicity. A wider panel of solid-tumor cell lines, derived from various origins, is analyzed herein. Sub-confluent cultures were treated with 70 μg/ml of BN107 for 18 hours and cell death were analyzed by annexinV/PI binding followed by flow cytometry. […] It is evident that BN107 induced cell death in tumor lines derived from various origins to different extent. […] These experiments sought to determine if there was correlative relationship between genotypic characteristics of the cells versus sensitivity. As shown in Table 2-1, it appeared that cells lacking ER expression were highly sensitive to BN107; while cells containing functional ER were relatively insensitive to BN107 at this dose. The death induced by BN107 in ER− lines was apoptotic in nature that was primarily mediated by the mitochondrial pathway, as evident from Annexin V binding, dissipation of mitochondrial potential, cytosolic release of cytochrome C, activation of caspases, and DNA fragmentation.
(§3) All the cell lines used were purchased from ATCC. Cells were treated with 70 μg/ml of BN107 (calculated based on freeze-dry weight). The dose is determined based on the EC50 of each batch in killing 50% of Hs578T or MDA-MB-231 cells 18 hours after treatment.
(§4) Cell survival was measured using FACS analysis of AnnexinV-alexa 488/PI bound cells following the manufacturer's instruction (Invitrogen). Mitochondrial transmembrane potential (MTP) was determined using JC-1 dye (Invitrogen) in live cells and analyzed using flow cytomery. Caspase 3 and 9 activities were measured using specific caspase peptide inhibitors (Calbiochem) conjugated to FITC followed by flow cytometry analysis. Cytosolic cytochrome C release were determined by separating the cytosol from mitochondria (Biovision) and cytochrome C released in cytosol was shown using immunoblotting.

[1] = animals; cited from earlier work
[2] = tested on: phospho-mTOR, total mTOR, RAPTOR and RICTOR in LR fractions of Hs578T; assay: Western blot of lipid raft fractions: mTOR complex components; assay type: cell-based, human; settings: Hs578T cells; 70 μg/ml BN107 or 110 μM oleanolic acid, 4 hours
Description: (§5) As Akt/mTOR, the main survival signaling pathway, has been implicated to take place on LRs, it was hypothesized that BN107 and similarly OA disrupted the signaling of these complexes on LRs. The fractions collected from sucrose-density—centrifugation of BN107 or OA treated Hs578T or MCF7 lysates were dialyzed and concentrated. Same amounts of protein from LR (fractions 3-5), non-LR plasma membrane (f6), and cytosolic (f8) fractions were analyzed by Western blotting. The levels of RAPTOR, Akt, 4E-BP, p70S6 kinase were first observed in these collected fractions; and it was confirmed that they were all enriched in the LR fractions (data not shown). The levels of phospho-mTOR, total mTOR; as well as the mTORC1 and mTORC2 complex partner RAPTOR and RICTOR, respectively, were then measured in BN107 or OA treated Hs578T cells. […]
(§6) A modified procedure for density gradient centrifugation using Nycodenz from Sigma-Aldrich (St. Louis, Mo.) was used to fractionate Triton X-100-soluble and Triton X-100-insoluble membrane and cytoskeletal subdomains and complexes. […] Total of 10 fractions and control input lysate were analyzed for the distribution of proteins by Western blot. […] The fractions were dialyzed against PBS to remove the gradient sugars and concentrated using Amicon Ultra 4 centrifugal filter device (Millipore) before protein quantitation (BCA reagent, Thermo Fisher). […]

[3] = tested on: mTORC1/mTORC2/Akt signaling in MCF7 cells; assay: Western blot of lipid raft fractions, resistant cells; assay type: cell-based, human
Description: (§7) In addition, as the same pool of mTOR/FRAP1 polypeptide is shared between the mTORC1 and mTORC2 complex and the mTORC2 complex partner RICTOR was decreased in the lipid rafts of BN107 or OA-treated Hs578T cells, it was hypothesized that mTORC2 activity would be inhibited as well. Given the recent discovery that mTORC2 is the main kinase phosphorylating Akt at Ser473, and Akt signaling has been implicated to take place on LRs, the level of Ser473 phosphorylated Akt was analyzed in LR fractions as a read-out for mTORC2 activity. […] Conversely, addition of exogenous cholesterol restored these signaling events disrupted by BN107 or OA (FIG. 8C). […] The levels of transferrin receptor (TR) marking the non-LR plasma membrane region and GAPDH marking the cytosolic fractions were not affected in both cell lines by either BN107 or OA treatment.
as §6

mTORC1 = mTORC1 activity by phosphorylation of 4E-BP and p70S6 kinase (Western); assay type: cell-based, human; settings: lipid raft region of Hs578T cells; 70 μg/ml BN107 or 110 μM oleanolic acid, 4 hr
Description: as §5, §6

[4] = tested on: mTOR/FRAP1, phospho-mTOR, RAPTOR, RICTOR, Akt in Hs578T cells; assay: Western analysis of total cellular lysate; assay type: cell-based, human; settings: ER− Hs578T cells (data not shown)
Source text: To ascertain that these signaling changes occurred at LRs indeed translated into the whole-cell level. […] Consistent with the data shown within the lipid raft fractions, levels of total mTOR/FRAP1, phospho-mTOR, RAPTOR, and RICTOR were all decreased within one hour of BN107 treatment, resulting in minimal mTORC1 and mTORC2 activities to phosphorylate 4E-BP and p70S6 kinase, and Ser473-Akt, respectively. The decrease in total protein levels of mTOR/FRAP1, RAPTOR and RICTOR occurred post-transcriptionally as the levels of their corresponding mRNAs were not modulated by BN107 or OA treatment in the sensitive ER− Hs578T cells (data not shown). […] These effects were presumably due to their cholesterol binding/stripping effect on LRs, as addition of exogenous cholesterol seemed to reverse these events (FIG. 8C).
Cell extracts, obtained by scraping cells in PBS in the presence of protein phosphatase and protease inhibitors and lysing with ice-cold RIPA buffer, were loaded on the SDS-PAGE at 25-30 μg per lane. Same amounts of proteins […] were precipitated from lipid raft fractions and loaded onto 3-7% TA gel or 4-12% Bis-Tris gels. Separated proteins were transferred onto nitrocellulose membrane (iBlot, Invitrogen) and used for probing with specific antibodies following manufacturer's instruction. Blots were reused several times after mild stripping (Restore, ThermoFisher) when necessary. […]

mTORC2 / Akt = assay: Ser473-phosphorylated Akt in LR fractions as read-out for mTORC2 activity (Western); assay type: cell-based, human; settings: Hs578T cells; 70 μg/ml BN107 or 110 μM oleanolic acid, 4 hr
Description: as §7, §6

MDA-MB-231 = assay: Annexin V/PI binding (cell death/apoptosis), flow cytometry; assay type: cell-based; settings: Homo sapiens, MDA-MB-231, read-out: EC50 for MDA-MB-231
Description: as §1, §2, §3, §4

Compound | effect of addition of cholesterol on induced death (Hs578T) | toxicity at anti-tumor doses [1] | levels of phospho-mTOR, total mTOR, RAPTOR and RICTOR in LR fractions [2] | changes in mTORC1/mTORC2/Akt signaling on LRs [3] | mTORC1 activity (phosphorylation of 4E-BP and p70S6 kinase) (mTORC1) | mRNA levels of mTOR/FRAP1, RAPTOR and RICTOR [4] | level of Ser473-phosphorylated Akt in LR fractions (mTORC2 read-out) (mTORC2 / Akt) | total level of Akt on LRs (mTORC2 / Akt) | EC50 (Hs578T; Homo sapiens, Hs-578T, read-out: EC50 for Hs578T) [µM] | EC50 (MDA-MB-231) [µM]
CC(=O)O[C@H]1C(=O)[C@@]2(C)[C@H]([C@H](OC(=O)c3ccccc3)[C@]3(O)C[C@H](OC(=O)[C@H](O)[C@@H](NC(=O)c4ccccc4)c4ccccc4)C(C)=C1C3(C)C)[C@]1(OC(C)=O)CO[C@@H]1C[C@@H]2O [taxol, paclitaxel, reference compound] | no effect | – | – | – | – | – | – | – | – | –
CC1(C)CC[C@]2(C(=O)O)CC[C@]3(C)C(=CC[C@@H]4[C@@]5(C)CC[C@H](O)C(C)(C)[C@@H]5CC[C@]43C)[C@@H]2C1 [OA, oleanolic acid] | protected cells specifically and completely | minimal toxicity | significantly decreased | None of these changes were observed | greatly inhibited | not modulated | decreased | no effect | 110 | 125
